Key:
HROC18 cells = assay: Apoptosis/necrosis assay, YO-PRO-1/PI flow cytometry; assay type: cell-based, human; conditions: HROC18, 24h, background cell death subtracted
Procedure: (§1) Figure 5 Apoptosis/necrosis assay and Western blot analysis (A, B) HROC18 and HROC24 cells were exposed to increasing HDP concentrations for a period of 24 hours. Tumor cells were stained with YO-PRO-1 for detecting early and late apoptotic tumor cells. Prior to flow cytometric analysis, PI was added to detect necrotic cells, as well. (A) Representative dot plots showing HDP-treated HROC24 cells at a concentration of 5 μM. Lower right quadrant: early apoptotic cells; upper right quadrant: late apoptotic cells; upper left quadrant: necrotic cells. (B) For cell death quantification, values of background cell death (=untreated controls) were subtracted from values of HDP-treated cells. Left panel: HROC24 cell; right panel: HROC18 cells. (C, E) Representative western blot results showing HDP-treated HROC24 cells (20 μg of total protein per lane). (D, F) Quantitative analysis of BAX and HSP90 expression in HDP-treated cells was done as described in material & methods. Expression levels of untreated cells were set to be =1 and x-fold increases of HDP-exposed cells were calculated. […] Values are given as mean ± SD.
(§2) Cell death was quantified by YO-PRO-1 (Invitrogen) and PI double staining. Selected tumor cells (HROC24 and HROC18, 1 × 10^4 cells/well) were seeded in 24-well plates and incubated overnight. Thereafter, peptides were added in increasing concentrations (ranging from 0.25 μM – 12.5 μM). Untreated cells served as living control. Following a 24-hour incubation period, supernatants were collected; cells were trypsinized and washed in PBS. Cells were stained with YO-PRO-1 (final concentration: 0.2 μM) for 20 min at room temperature. Prior to flow cytometric analysis, PI was added at a final concentration of 100 μg/ml. For cell death quantification, values of background cell death (=untreated controls) were subtracted from values of HDP-treated cells.

[1] = tested on: HDP-responsive cell lines (e.g. HROC24); assay: Western blot analysis of Bax and HSP90 expression; assay type: cell-based, human; conditions: normalized to β-actin, untreated =1
Procedure: Figure 5 Apoptosis/necrosis assay and Western blot analysis (A, B) HROC18 and HROC24 cells were exposed to increasing HDP concentrations for a period of 24 hours. Tumor cells were stained with YO-PRO-1 for detecting early and late apoptotic tumor cells. Prior to flow cytometric analysis, PI was added to detect necrotic cells, as well. (A) Representative dot plots showing HDP-treated HROC24 cells at a concentration of 5 μM. Lower right quadrant: early apoptotic cells; upper right quadrant: late apoptotic cells; upper left quadrant: necrotic cells. (B) For cell death quantification, values of background cell death (=untreated controls) were subtracted from values of HDP-treated cells. […] (D, F) Quantitative analysis of BAX and HSP90 expression in HDP-treated cells was done as described in material & methods. Expression levels of untreated cells were set to be =1 and x-fold increases of HDP-exposed cells were calculated. […]
Cellular protein extracts were obtained from HDP-treated and control cells following incubation with lysis buffer (1 M Tris, pH 7.5, 5 M sodium chloride, 0.25 M ethylenediaminetetraacetic acid, 10% (v/v) triton-x 100, 4% (v:v) sodium azide, 0.1 M phenylmethane-sulfonylfluoride, protease inhibitor cocktail (Roche, Mannheim, Germany)) on ice for 30 min. […] Signal integrated intensities were quantified applying the Odyssey® software version 3.16. […]

[2] = tested on: whole blood cells of healthy donors; assay: Hemolysis assay, hemoglobin release; assay type: cell-based, human; conditions: whole blood of healthy donors (n=6), 0.25-12.5 μM, 120 min incubation (text: 24h), absorption 540 nm, 1% SDS = maximum lysis
Procedure: Figure 6 Hemolysis and lymphotoxicity assays (A) Hemolytic activity of HDPs was determined by hemoglobin release from whole blood cells after 120 min incubation. Negative controls were left untreated whereas positive controls (=maximum lysis) were treated with 1% SDS. Hemolytic activity was quantified as described in the material and methods section. (B) PBLs were incubated in the presence of increasing HDP concentrations for a period of 24 hours. Viability was analyzed using Calcein-AM and quantified in comparison to untreated controls, which were set to be =1. […] Experiments were performed in triplicates. Values are given as the mean x-fold increase ± SD.
Hemolytic activity of HDPs was determined by hemoglobin release from whole blood cells after 120 min incubation. Briefly, whole blood of healthy donors (n=6) was seeded in 96-well plates and supplemented with HDPs at given concentrations (ranging from: 0.25 μM – 12.5 μM). Negative controls were left untreated and positive controls (=maximum lysis) were treated with 1% SDS. Following the incubation period, cell-free supernatants were transferred into a new 96-well plate and absorption was measured on a plate reader at 540 nm (reference wave length: 690 nm). Hemolytic activity was quantified according to the following formula: % hemolysis=((OD540nm sample−OD540nm buffer)/OD540nm max−OD540nm buffer)*100

[3] = FRET spectroscopy probe dilution assay, membrane intercalation; assay type: binding; conditions: NBD-PE/rhodamine-PE, peptide 0.2-0.8 μM, 20 mM HEPES 150 mM NaCl pH 7.4, 37°C
Procedure: FRET spectroscopy served as a sensitive tool to detect lipid dependence of the membrane interaction of antimicrobial peptides. For this, all peptides were added to liposomes consisting of zwitterionic PC alone, of a mixture of PC and of negatively charged PS, as well as of pure PS (Figure 1). All lipid vesicles were doped with donor and acceptor dyes, peptides were added, and the emission intensities of both dyes were monitored over time. An increase of the fluorescence intensity of the donor (IDonor) and a simultaneous decrease of the fluorescence intensity of the acceptor dye (IAcceptor), i.e. a reduced FRET efficacy, indicated an increase in the overall mean distance between labeled phospholipids, and corresponded to an insertion of peptides into the lipid bilayer. For clarity, the IDonor/IAcceptor ratio is shown (Figure 1).
Figure 1 FRET spectroscopy. (A-C) Binding to and insertion of peptide C7A-D21K into phospholipid membranes (A) C7A-D21K was added at time point 50 s to liposomes (10 μM) consisting of pure PC, (B) a 90:10 molar mixture of PC:PS, and (C) of pure PS, each doubly doped with the fluorescently labeled FRET pair NBD-PE (donor) and rhodamine-PE (acceptor). Intercalation was monitored by measuring donor and acceptor fluorescence emission intensities. For better visualization only the quotient (IDonor/IAcceptor) is shown. Addition of the peptide solvent alone had no effect (dotted grey line). Peptide concentrations used: 0.2 μM (dotted black line, only in C), 0.4 μM (solid grey line, only in C), and 0.8 μM (solid black line). (D-F) Binding to and insertion of peptides at different concentrations into phospholipid membranes. (A) Peptides were added to liposomes consisting of pure PC, (B) a 90:10 molar mixture of PC:PS, and (C) of pure PS, each doubly doped with the fluorescently labeled phospholipid FRET pair NBD-PE (donor) and rhodamine-PE (acceptor). Intercalation was monitored by measuring donor and acceptor fluorescence intensities. The relative increase of the IDonor/IAcceptor ratio 250 s after peptide addition is shown (Increase of IDonor/IAcceptor (%) = (IDonor/IAcceptor (peptide) - IDonor/IAcceptor (control))*100). Peptide concentrations used: 0.2 μM (open bars), 0.4 μM (grey bars), and 0.8 μM (black bars).
Intercalation of peptides into liposome membranes was determined by FRET spectroscopy applied as a probe dilution assay. Liposomes were prepared by dissolving appropriate lipid mixtures (pure PC, a 90:10 molar mixture of PC:PS, as well as pure PS, each doped with 1% of the donor dye NBD-PE and 1% of the acceptor dye rhodamine-PE) in chloroform and drying them under a gentle stream of nitrogen. The resulting lipid film was dispersed in 20 mM HEPES, 150 mM NaCl, pH 7.4, sonicated for 30 min and subjected to 3-4 temperature cycles from 4 to 60°C with an incubation period of 30 min at each step. Lipid dispersions were stored at 4°C overnight before use. For the assay, donor fluorescence (NBD) was excited at 470 nm, and donor (NBD, ID at 531 nm) as well as acceptor (rhodamine, IA at 593 nm) emission intensities were monitored over time. An increase of the ratio of the donor fluorescence intensity to that of the acceptor fluorescence intensity (IDonor/I^Acceptor) was interpreted as a membrane intercalation event. This ratio depends on the Förster efficiency, therefore a rising value means that the mean distance separation of donor and acceptor dyes is raising. The assay was performed at 37°C.

HCT116 cells = assay: Calcein-AM cell viability staining, 24h; assay type: cell-based, human; conditions: HCT116, 24h, 0.25-12.5 μM
Procedure: (§3) Figure 4 HDP-mediated cytotoxicity towards tumor cells Quantitative analysis of direct cytotoxicity towards tumor cells following a 24h incubation period with increasing HDP concentrations. Viability was assessed using Calcein-AM staining. Remaining viable tumor cells were quantified in comparison to untreated controls, which were set to be =1. […] Values are given as the mean x-fold increase ± SD. *p<0.05 vs. NK11; **p<0.01 vs. NK11.
(§4) This assay is based on Calcein-acetoxymethylester (Calcein-AM; Invitrogen, Darmstadt, Germany) staining to detect viable cells within a culture. Tumor and normal (PBL) cells (1-2 × 10^4 cells/well in triplicates) were seeded in 96-well plates and incubated overnight. Thereafter, peptides were added in increasing concentrations (ranging from 0.25 μM – 12.5 μM). Untreated cells served as living cell control. Medium was removed after 1h or 24h, respectively. Calcein-AM ([…]) was added and incubated for 30 min (37°C, 5% CO2). Analysis was performed on a fluorescence multi-well plate reader (Tecan Infinite® M200, Crailsheim, Germany) at an excitation wavelength of 485 nm (emission 535 nm). For estimation of cell viability, the relative fluorescence intensities of Calcein-AM-stained non-treated cells (=live control) were set to be 1, and fluorescence intensities of samples were calculated. Data of at least three independent experiments each performed in […] are given.

HROC24 cells [4] = assay: Calcein-AM cell viability staining, 24h; assay type: cell-based, human; conditions: HROC24, 24h, 0.25-12.5 μM
Procedure: as §3, §4

HROC24 cells [5] = assay: Apoptosis/necrosis assay, YO-PRO-1/PI flow cytometry; assay type: cell-based, human
Procedure: as §1, §2

| Molecule | total killing (HROC18 cells) | HSP90 protein expression [1] | hemolysis [2] | Membrane intercalation (increase of IDonor/IAcceptor) ([3]; PC:PS 90:10 liposomes 10 μM) | Membrane intercalation (increase of IDonor/IAcceptor) ([3]; pure PS liposomes 10 μM) | Lytic activity towards tumor cells (HCT116 cells) | Lytic activity towards tumor cells (HROC24 cells [4]) | Levels of viable HROC24 cells (HROC24 cells [5]; 24h, higher concentrations) | Tumor killing compared with Melittin (HROC24 cells [5]; HROC24, 24h) |
| --- | --- | --- | --- | --- | --- | --- | --- | --- | --- |
| CC[C@H](C)[C@H](NC(=O)CN)C(=O)NCC(=O)N[C@@H](C)C(=O)N[C@H](C(=O)N[C@@H](CC(C)C)C(=O)N[C@@H](CCCCN)C(=O)N[C@H](C(=O)N[C@@H](CC(C)C)C(=O)N[C@H](C(=O)N[C@H](C(=O)NCC(=O)N[C@@H](CC(C)C)C(=O)N1CCC[C@H]1C(=O)N[C@@H](C)C(=O)N[C@@H](CC(C)C)C(=O)N[C@H](C(=O)N[C@@H](CO)C(=O)N[C@@H](Cc1c[nH]c2ccccc12)C(=O)N[C@H](C(=O)N[C@@H](CCCCN)C(=O)N[C@@H](CCCNC(=N)N)C(=O)N[C@@H](CCCCN)C(=O)N[C@@H](CCCNC(=N)N)C(=O)N[C@@H](CCC(N)=O)C(=O)N[C@@H](CCC(N)=O)C(N)=O)[C@@H](C)CC)[C@@H](C)CC)[C@@H](C)O)[C@@H](C)O)C(C)C)C(C)C [Melittin] | 71% | dose-dependently induced | below 20% | – | – | – | – | – | – |
| KILRGVAKKIMRTFLRR ILTGKK [Peptide C7A-Δ, C7A shortened by deletion of four amino acid residues] | up to 60% | – | – | slightly impaired | pronounced | as effective as the reference compound Mellitin | as effective as the reference compound Mellitin | 17% | as effective in tumor killing as Melittin |

Source: PMC4147338, “Host defense peptides for treatment of colorectal carcinoma – a comparative in vitro and in vivo analysis” (Oncotarget, 2014)
